In patent publication US20020051978A1, “Methods and compositions for the identification, assessment, prevention and therapy of human cancers” (priority 2000, published 2002):
Structures can show the parent of a compound that is named as a salt. Where two headings read alike, the source gives them in different places.

How the values were obtained:
[1] = system: 60 cancer cell lines (NCI 60 cancer cell line series); assay: NCI-DTP in vitro cancer screen, sulforhodamine B (SRB) growth inhibition, 48 hour exposure; format: cell-based, human; parameters: key to sensitivity class Ovarian OVCAR-8 CL6005 / sensitivity class Ovarian SK-OV-3 CL6011 / sensitivity class Prostate DU-145 CL11003 / sensitivity class NSCLC NCI-H522 CL1003 / sensitivity class Ovarian IGROV1 CL6010 / sensitivity class Ovarian OVCAR-4 CL6002 / sensitivity class Prostate PC-3(I) CL11001 / sensitivity class Renal A498 CL9013 / sensitivity class Renal SN12C CL9008: sensitivity class: 1 = Low, 2 = Medium, 3 = High
Summary of the method: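 Values come from the NCI-DTP screen database: -log GI50, the concentration giving 50% growth inhibition, derived from SRB cell-mass dose-response curves. Each line seeded at its own density, treated day 1 at five ten-fold-spaced doses in duplicate wells, stained after 48 h.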

[2] = system: 60 cancer cell lines (NCI 60 cancer cell line series); conditions: cited from earlier work

CC[C@]1(O)C[C@H]2CN(CCc3c([nH]c4ccccc34)[C@@](C(=O)OC)(c3cc4c(cc3OC)N(C=O)[C@H]3[C@@](O)(C(=O)OC)[C@H](OC(C)=O)[C@]5(CC)C=CCN6CC[C@]43[C@@H]65)C2)C1 [Vincristine sulfate]
classification of cell line as Low(1), Medium(2) or High(3) sensitivity to compound ([1]; Breast BT-549 (CL5013)): 2
classification of cell line as Low(1), Medium(2) or High(3) sensitivity to compound ([1]; Breast HS-578T CL5006): 2
classification of cell line as Low(1), Medium(2) or High(3) sensitivity to compound ([1]; Breast MCF7(I) (CL5001)): 2
classification of cell line as Low(1), Medium(2) or High(3) sensitivity to compound ([1]; Breast MCF7/ADRr (CL5002)): 2
classification of cell line as Low(1), Medium(2) or High(3) sensitivity to compound ([1]; Breast MDA-MB-231 CL5005): 2
classification of cell line as Low(1), Medium(2) or High(3) sensitivity to compound ([1]; Breast MDA-MB-435 (CL5011)): 2
classification of cell line as Low(1), Medium(2) or High(3) sensitivity to compound ([1]; Breast MDA-N CL5012): 1
classification of cell line as Low(1), Medium(2) or High(3) sensitivity to compound ([1]; Breast T-47D (CL5014)): 2
classification of cell line as Low(1), Medium(2) or High(3) sensitivity to compound ([1]; CNS SF-268 CL12014): 3
classification of cell line as Low(1), Medium(2) or High(3) sensitivity to compound ([1]; CNS SF-295 CL12015): 3
classification of cell line as Low(1), Medium(2) or High(3) sensitivity to compound ([1]; CNS SF-539 CL12016): 3
classification of cell line as Low(1), Medium(2) or High(3) sensitivity to compound ([1]; CNS SNB-19 (CL12002)): 2
classification of cell line as Low(1), Medium(2) or High(3) sensitivity to compound ([1]; CNS SNB-75(I) CL12005): 2
classification of cell line as Low(1), Medium(2) or High(3) sensitivity to compound ([1]; CNS U251(I) CL12009): 2
classification of cell line as Low(1), Medium(2) or High(3) sensitivity to compound ([1]; Colon COLO-250 CL4010): 2
classification of cell line as Low(1), Medium(2) or High(3) sensitivity to compound ([1]; Colon HCC-2998 (CL4002)): 2
classification of cell line as Low(1), Medium(2) or High(3) sensitivity to compound ([1]; Colon HCT-15 CL4015): 2
classification of cell line as Low(1), Medium(2) or High(3) sensitivity to compound ([1]; Colon HCT-116 (CL4003)): 2
classification of cell line as Low(1), Medium(2) or High(3) sensitivity to compound ([1]; Colon HT29(I) CL4001): 3
classification of cell line as Low(1), Medium(2) or High(3) sensitivity to compound ([1]; Colon KM12 (CL4017)): 3
classification of cell line as Low(1), Medium(2) or High(3) sensitivity to compound ([1]; Colon SW-620 (CL4009)): 3
classification of cell line as Low(1), Medium(2) or High(3) sensitivity to compound ([1]; Leukemia CCRF-CEM(I) (CL7003)): 3
classification of cell line as Low(1), Medium(2) or High(3) sensitivity to compound ([1]; Leukemia HL-60(I) (CL7008)): 3
classification of cell line as Low(1), Medium(2) or High(3) sensitivity to compound ([1]; Leukemia K562(I) CL7005): 3
classification of cell line as Low(1), Medium(2) or High(3) sensitivity to compound ([1]; Leukemia MOLT-4 (CL7006)): 3
classification of cell line as Low(1), Medium(2) or High(3) sensitivity to compound ([1]; Leukemia RPMI-8226(I) (CL7010)): 3
classification of cell line as Low(1), Medium(2) or High(3) sensitivity to compound ([1]; Leukemia SR CL7019): 3
classification of cell line as Low(1), Medium(2) or High(3) sensitivity to compound ([1]; Melanoma LOX IMVI CL10001): 3
classification of cell line as Low(1), Medium(2) or High(3) sensitivity to compound ([1]; Melanoma M14 (CL10014)): 2
classification of cell line as Low(1), Medium(2) or High(3) sensitivity to compound ([1]; Melanoma MALME-3M CL10002): 2
classification of cell line as Low(1), Medium(2) or High(3) sensitivity to compound ([1]; Melanoma SK-MEL-2 (CL10005)): 2
classification of cell line as Low(1), Medium(2) or High(3) sensitivity to compound ([1]; Melanoma SK-MEL-5 (CL10007)): 3
classification of cell line as Low(1), Medium(2) or High(3) sensitivity to compound ([1]; Melanoma SK-MEL-28 (CL10008)): 1
classification of cell line as Low(1), Medium(2) or High(3) sensitivity to compound ([1]; Melanoma UACC-62 (CL10020)): 2
classification of cell line as Low(1), Medium(2) or High(3) sensitivity to compound ([1]; Melanoma UACC-257 (CL10021)): 2
classification of cell line as Low(1), Medium(2) or High(3) sensitivity to compound ([1]; NSCLC A549/ATCC (CL1004)): 2
classification of cell line as Low(1), Medium(2) or High(3) sensitivity to compound ([1]; NSCLC EKVX (CL1008)): 1
classification of cell line as Low(1), Medium(2) or High(3) sensitivity to compound ([1]; NSCLC HOP-62 (CL1026)): 2
classification of cell line as Low(1), Medium(2) or High(3) sensitivity to compound ([1]; NSCLC HOP-92 (CL1029)): 2
classification of cell line as Low(1), Medium(2) or High(3) sensitivity to compound ([1]; NSCLC NCI-H226 CL1013): 2
sensitivity class NSCLC NCI-H23(I) CL1001 ([1]; cell line NSCLC NCI-H23(I), CL1001): 3
sensitivity class NSCLC NCI-H332M CL1017 ([1]; cell line NSCLC NCI-H332M, CL1017): 2
sensitivity class NSCLC NCI-H460 CL1021 ([1]; cell line NSCLC NCI-H460, CL1021): 3
sensitivity class NSCLC NCI-H522 CL1003 ([1]; cell line NSCLC NCI-H522, CL1003): 3
sensitivity class Ovarian IGROV1 CL6010 ([1]; cell line Ovarian IGROV1, CL6010): 3
sensitivity class Ovarian OVCAR-3 CL6001 ([1]; cell line Ovarian OVCAR-3, CL6001): 3
sensitivity class Ovarian OVCAR-4 CL6002 ([1]; cell line Ovarian OVCAR-4, CL6002): 2
sensitivity class Ovarian OVCAR-5 CL6003 ([1]; cell line Ovarian OVCAR-5, CL6003): 1
sensitivity class Ovarian OVCAR-8 CL6005 ([1]; cell line Ovarian OVCAR-8, CL6005): 3
sensitivity class Ovarian SK-OV-3 CL6011 ([1]; cell line Ovarian SK-OV-3, CL6011): 2
sensitivity class Prostate DU-145 CL11003 ([1]; cell line Prostate DU-145, CL11003): 2
sensitivity class Prostate PC-3(I) CL11001 ([1]; cell line Prostate PC-3(I), CL11001): 2
sensitivity class Renal 786-O CL9018 ([1]; cell line Renal 786-O, CL9018): 2
sensitivity class Renal A498 CL9013 ([1]; cell line Renal A498, CL9013): 3
sensitivity class Renal ACHN CL9023 ([1]; cell line Renal ACHN, CL9023): 2
sensitivity class Renal CAKI-1 CL9015 ([1]; cell line Renal CAKI-1, CL9015): 2
sensitivity class Renal RXF-393 CL9016 ([1]; cell line Renal RXF-393, CL9016): 2
sensitivity class Renal SN12C CL9008 ([1]; cell line Renal SN12C, CL9008): 2
sensitivity class Renal TK10 CL9024 ([1]; cell line Renal TK10, CL9024): 1
sensitivity class Renal UO-31 CL9004 ([1]; cell line Renal UO-31, CL9004): 1
-Log (GI50) ([2]; Breast BT-549 (CL5013)): 5.9
-Log (GI50) ([2]; Breast HS-578T CL5006): 6.5
-Log (GI50) ([2]; Breast MCF7(I) (CL5001)): 6.9
-Log (GI50) ([2]; Breast MCF7/ADRr (CL5002)): 6.1
-Log (GI50) ([2]; Breast MDA-MB-231 CL5005): 6.6
-Log (GI50) ([2]; Breast MDA-MB-435 (CL5011)): 6.7
-Log (GI50) ([2]; Breast MDA-N CL5012): 6.6
-Log (GI50) ([2]; Breast T-47D (CL5014)): 3.8
-Log (GI50) ([2]; CNS SF-268 CL12014): 6.8
-Log (GI50) ([2]; CNS SF-295 CL12015): 7.0
-Log (GI50) ([2]; CNS SF-539 CL12016): 7.0
-Log (GI50) ([2]; CNS SNB-19 (CL12002)): 6.9
-Log (GI50) ([2]; CNS SNB-75(I) CL12005): 6.3
-Log (GI50) ([2]; CNS U251(I) CL12009): 6.9
-Log (GI50) ([2]; Colon COLO-250 CL4010): 6.9
-Log (GI50) ([2]; Colon HCC-2998 (CL4002)): 6.9
-Log (GI50) ([2]; Colon HCT-15 CL4015): 6.9
-Log (GI50) ([2]; Colon HCT-116 (CL4003)): 6.9
-Log (GI50) ([2]; Colon HT29(I) CL4001): 7.0
-Log (GI50) ([2]; Colon KM12 (CL4017)): 6.9
-Log (GI50) ([2]; Colon SW-620 (CL4009)): 7.0
-Log (GI50) ([2]; Leukemia CCRF-CEM(I) (CL7003)): 7.0
-Log (GI50) ([2]; Leukemia HL-60(I) (CL7008)): 7.0
-Log (GI50) ([2]; Leukemia K562(I) CL7005): 7.0
-Log (GI50) ([2]; Leukemia MOLT-4 (CL7006)): 6.9
-Log (GI50) ([2]; Leukemia RPMI-8226(I) (CL7010)): 6.9
-Log (GI50) ([2]; Leukemia SR CL7019): 7.0
-Log (GI50) ([2]; Melanoma LOX IMVI CL10001): 7.0
-Log (GI50) ([2]; Melanoma M14 (CL10014)): 6.9
-Log (GI50) ([2]; Melanoma MALME-3M CL10002): 6.6
-Log (GI50) ([2]; Melanoma SK-MEL-2 (CL10005)): 6.9
-Log (GI50) ([2]; Melanoma SK-MEL-5 (CL10007)): 7.0
-Log (GI50) ([2]; Melanoma SK-MEL-28 (CL10008)): 6.0
-Log (GI50) ([2]; Melanoma UACC-62 (CL10020)): 6.9
-Log (GI50) ([2]; Melanoma UACC-257 (CL10021)): 6.8
-Log (GI50) ([2]; NCSLC NCI-H522 CL1003): 6.9
-Log (GI50) ([2]; NSCLC A549/ATCC (CL1004)): 6.9
-Log (GI50) ([2]; NSCLC EKVX (CL1008)): 5.7
-Log (GI50) ([2]; NSCLC HOP-62 (CL1026)): 6.8
-Log (GI50) ([2]; NSCLC HOP-92 (CL1029)): 6.9
-Log (GI50) ([2]; NSCLC NCI-H23(I) CL1001): 7.0
-Log (GI50) ([2]; NSCLC NCI-H226 CL1013): 6.9
-Log (GI50) ([2]; NSCLC NCI-H332M CL1017): 6.9
-Log (GI50) ([2]; NSCLC NCI-H460 CL1021): 7.0
-Log (GI50) ([2]; Ovarian IGROV1 CL6010): 7.0
-Log (GI50) ([2]; Ovarian OVCAR-3 CL6001): 7.0
-Log (GI50) ([2]; Ovarian OVCAR-4 CL6002): 6.3
-Log (GI50) ([2]; Ovarian OVCAR-5 CL6003): 4.7
-Log (GI50) ([2]; Ovarian OVCAR-8 CL6005): 7.0
-Log (GI50) ([2]; Ovarian SK-OV-3 CL6011): 6.6
-Log (GI50) ([2]; Prostate DU-145 CL11003): 6.4
-Log (GI50) ([2]; Prostate PC-3(I) CL11001): 6.6
-Log (GI50) ([2]; Renal 786-O CL9018): 6.9
-Log (GI50) ([2]; Renal A498 CL9013): 7.0
-Log (GI50) ([2]; Renal ACHN CL9023): 6.8
-Log (GI50) ([2]; Renal CAKI-1 CL9015): 6.9
-Log (GI50) ([2]; Renal RXF-393 CL9016): 6.9
-Log (GI50) ([2]; Renal SN12C CL9008): 6.9
-Log (GI50) ([2]; Renal TK10 CL9024): 5.7
-Log (GI50) ([2]; Renal UO-31 CL9004): 5.7
